Earlier results on 60 compounds are cited in the CATMoS acute toxicity set (Mansouri et al. 2021).

Values joined by “and” are separate entries in the source; they are usually repeats but may differ in a detail not shown here. Equal values may be shown once.

This data set in a line: rat acute oral toxicity. The note with it: in vivo.
For `CC(CC1CCCCC1)NCCC(c1ccccc1)c1ccccc1` (stereo not given), the median lethal dose (LD50) was 1550 mg/kg.

In the case of `CCOC(=O)N1CC=Cc2ccccc21`, the LD50 was 195 mg/kg.

On to `O=c1ccc(=O)[nH][nH]1`, for which the LD50 is 10800 mg/kg.

Turning to `Cc1cc(F)ccc1NC(=O)c1cc(Cl)cc(-c2ccc(Cl)cc2)c1O`, the LD50 was 2510 mg/kg.

For the compound `CCCCCCCCCc1ccc(OCCOS(=O)(=O)O)cc1`, the LD50 was 10000 mg/kg.

For the compound `O=S(=O)(O)CCS`, the LD50 is 4440 mg/kg.

In the case of `OC[C@H]1CO[C@@H](Cc2ccccc2)O1`, the LD50 is 1720 mg/kg.

As to `CCOP(=S)(OCC)SC(C#N)c1ccccc1` (stereo not given), the LD50 is 100 mg/kg.

For `CCCCCCC(C)P(=O)(C(C)CCCCCC)C(C)CCCCCC` (stereo not given), the LD50 is 7270 mg/kg.

As to `O=C1c2ccccc2C(=O)C1c1ccc(Cl)cc1`, the LD50 is 290 mg/kg.

For the compound `C=C(F)CO`, the LD50 was 130 mg/kg.

Consider `Clc1ccc(Sc2cc(Cl)c(Cl)cc2Cl)cc1`, for which the LD50 was 3960 mg/kg.

Regarding `C=C(C)C1CC=C(C)C(=O)C1` (racemic), the LD50 was 1640 mg/kg.

On to `CCCCCOC(=S)S`, for which the LD50 is 1000 mg/kg.

Turning to `COc1ccc(-c2oc3ccc(C(=O)O)cc3c(=O)c2OC(C)C)cc1`, the LD50 is 1480 mg/kg.

With `CCN(CCCC(=O)C1CCCCC1)C(C)Cc1ccc(OC)cc1` (stereo not given), the LD50 is 369 mg/kg.

For `CC1=CC(=O)c2c(O)cccc2C1=O`, the LD50 was 65 mg/kg.

Turning to `CCOC(C1=NCCCN1)c1cccc(Cl)c1` (stereo not given), the LD50 is 695 mg/kg.

As for `CCC(C)(C)c1ccc(O)c(C(C)(C)CC)c1`, the LD50 was 330 mg/kg.

With `CCCCCCCCN1CCCC1=O`, the LD50 is 2050 mg/kg.

Regarding `Cc1cc2c(C(C)C)c(O)c(O)c(C=O)c2c(O)c1-c1c(C)cc2c(C(C)C)c(O)c(O)c(C=O)c2c1O`, the LD50 is 2320 mg/kg.

For `C=C(C#N)C(=O)OC`, the LD50 was 1600 mg/kg.

As for `C=C(/C=C/C)C1=C(C)CCCC1(C)C`, the LD50 was 2920 mg/kg.

As to `CN1CC[C@]23c4c5ccc(O)c4O[C@H]2[C@H](N=[N+]=[N-])CC[C@H]3[C@H]1C5`, the LD50 was 62 mg/kg.

Turning to `CCCC(C)C(c1ccc(O)cc1)C(C)C` (stereo not given), the LD50 is 1900 mg/kg.

With `CNC(=O)ON=C1CSC(C)(C)S1`, the LD50 was 2 mg/kg.

On to `CCN(CC)CCSSCCN(CC)CC`, for which the LD50 is 340 mg/kg.

Consider `O=C(COc1ccc(Cc2ccc(Cl)cc2)cc1)OCc1cccnc1`, for which the LD50 is 2700 mg/kg.

For the compound `CNC(=O)Oc1cccc2c1OCCO2`, the LD50 is 126 mg/kg.

In the case of `O=C1C2=C(CCCC2)C(=O)N1c1ccc(Cl)cc1`, the LD50 was 24000 mg/kg.

`CCCCCCc1ccc(C(CBr)OCC(CC)CCCC)cc1` (stereo not given): the LD50 was 250 mg/kg.

Regarding `CC(C)COC(=O)CCCOc1ccc(Cl)cc1Cl`, the LD50 is 300 mg/kg.

Take `c1ccc2[nH]c(-c3cscn3)nc2c1`: the LD50 was 3600 mg/kg and 3100 mg/kg.

Turning to `CCOc1ccc(C(=O)NCc2ccc(OCCNC)cc2)cc1OCC`, the LD50 was 3000 mg/kg.

For the compound `CCOC(=O)CC(=O)NP(=O)(OC)SC` (stereo not given), the LD50 was 125 mg/kg.

Consider `CN1C(=O)c2ccc([N+](=O)[O-])cc2C1=O`, for which the LD50 was 2800 mg/kg.

`CC(C)(c1ccccc1)c1cc(CN2CCCCC2)c(O)c(CN2CCCCC2)c1`: the median lethal dose (LD50) is 600 mg/kg.

As to `COc1ccc2cc(CCC(C)=O)ccc2c1`, the LD50 was 3880 mg/kg.

For the compound `FC(F)(F)c1nc2ccc(-c3ccccc3)cc2[nH]1`, the LD50 was 69 mg/kg.

On to `CC1NC(=O)c2cc(N)ccc2O1` (stereo not given), for which the LD50 was 1420 mg/kg.

Regarding `CCCCOC(=O)CCCOc1ccc(Cl)cc1Cl`, the LD50 was 300 mg/kg.

On to `CC(C)OP(=S)(CCl)Sc1ccc(F)cc1` (stereo not given), for which the median lethal dose (LD50) is 39 mg/kg.

Turning to `CC1CC(C)(C)CC(OOC(C)(C)C)(OOC(C)(C)C)C1` (stereo not given), the LD50 was 12900 mg/kg.

On to `CN(C(=O)CF)c1cccc2ccccc12`, for which the LD50 was 67 mg/kg.

For `N=C(N)NCCC[C@H](N)C(=O)O`, the LD50 was 12000 mg/kg.

For the compound `COP(=S)(OC)Oc1cc(Cl)c(I)cc1Cl`, the LD50 is 2330 mg/kg.

As for `NC(=O)NO`, the LD50 is 5760 mg/kg.

In the case of `CCC(C)(O)CCc1ccccc1` (stereo not given), the LD50 was 2950 mg/kg.

On to `CCOC(=O)C1=C(O)c2ccccc2S(=O)(=O)N1C`, for which the median lethal dose (LD50) was 4800 mg/kg.

Regarding `CN1CCN(C2=Cc3ccccc3Oc3ccc(F)cc32)CC1`, the LD50 was 646 mg/kg.

As for `c1coc(-c2nc3ccccc3[nH]2)c1`, the LD50 was 500 mg/kg.

Take `Cc1ccc(C(=O)c2cccc3c2CCC3C(=O)O)cc1` (stereo not given): the LD50 was 244 mg/kg.

As for `C(=NC1CCCCC1)c1ccccc1`, the LD50 was 3080 mg/kg.

With `OCCOc1ccc(Cl)cc1Cl`, the LD50 is 1410 mg/kg.

In the case of `CC(C)=CC(NC(=O)C1=C([O-])c2sc(Cl)cc2S(=O)(=O)N1C)[n+]1ccccc1` (stereo not given), the LD50 was 10 mg/kg.

Turning to `COP(=O)(SC(C)C)SC(C)C`, the LD50 is 119 mg/kg.

On to `CC(=O)NC(=O)N(C)N=O`, for which the LD50 was 200 mg/kg.

Turning to `C1CSCCS1`, the LD50 is 2770 mg/kg.

Turning to `C=COCCOCCCC`, the LD50 was 3100 mg/kg.

Take `Clc1cc2c(cc1Cl)Oc1c(Cl)c(Cl)c(Cl)c(Cl)c1O2`: the LD50 is 0.887 mg/kg.

Broadly, the LD50 is the dose at which mortality reaches 50%.
